Several values for one entry are separate records, joined by “and”; a condition that tells them apart may be missing. Equal values may be shown once. Toxic doses and inconclusive results are not listed.
Tested on: BDF1 mice, P388 leukemia ip, median survival T/C
Assay: NCI In Vivo Anticancer Drug Screen. Data for tumor model P388 Leukemia (intraperitoneal) in B6D2F1 (BDF1) mice
Settings: endpoint: median survival time, higher = longer survival
Procedure, shortened: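 Transplantable tumour in mice; compound vs vehicle dosing; survival scored; ratio of treated to control reported.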

[1] = dose: 100.0 mg/kg/injection, schedule: Q01DX009 (ip), vehicle: saline
[2] = dose: 400.0 mg/kg/injection, schedule: Q04DX003 (ip), vehicle: saline
[3] = dose: 100.0 mg/kg/injection, schedule: Q01DX009 (ip), vehicle: saline with Tween-80
[4] = dose: 200.0 mg/kg/injection, schedule: Q01DX009 (ip), vehicle: saline with Tween-80
[5] = dose: 400.0 mg/kg/injection, schedule: Q01DX009 (ip), vehicle: saline with Tween-80
[6] = dose: 50.0 mg/kg/injection, schedule: Q01DX009 (ip), vehicle: saline with Tween-80
[7] = dose: 50.0 mg/kg/injection, schedule: Q01DX009 (ip), vehicle: Klucel (hydroxypropylcellulose) (HPC)
[8] = dose: 100.0 mg/kg/injection, schedule: Q01DX009 (ip), vehicle: Klucel (hydroxypropylcellulose) (HPC)
[9] = dose: 200.0 mg/kg/injection, schedule: Q01DX009 (ip), vehicle: Klucel (hydroxypropylcellulose) (HPC)

COC(=O)C(N)CSC (stereo not given)
T/C [1]: 103 % of control | T/C (dose: 100.0 mg/kg/injection, schedule: Q04DX003 (ip), vehicle: saline): 113 % of control | T/C (dose: 200.0 mg/kg/injection, schedule: Q01DX009 (ip), vehicle: saline): 106 % of control | T/C (dose: 200.0 mg/kg/injection, schedule: Q04DX003 (ip), vehicle: saline): 90 % of control | T/C (dose: 400.0 mg/kg/injection, schedule: Q01DX009 (ip), vehicle: saline): 106 % of control | T/C [2]: 104 % of control

COc1cc2ccc3c(c2cc1OC)C(=O)CNC3C (stereo not given)
T/C (dose: 3.13 mg/kg/injection, schedule: Q01DX009 (ip), vehicle: saline): 104 % of control | T/C (dose: 3.13 mg/kg/injection, schedule: Q04DX003 (ip), vehicle: saline): 109 % of control | T/C (dose: 6.25 mg/kg/injection, schedule: Q01DX009 (ip), vehicle: saline): 100 % of control | T/C (dose: 6.25 mg/kg/injection, schedule: Q04DX003 (ip), vehicle: saline): 100 % of control | T/C (dose: 12.5 mg/kg/injection, schedule: Q01DX009 (ip), vehicle: saline): 100 % of control | T/C (dose: 12.5 mg/kg/injection, schedule: Q04DX003 (ip), vehicle: saline): 109 % of control

Nc1c(C(=O)O)cccc1C(=O)O
T/C [3]: 104 % of control | T/C (dose: 100.0 mg/kg/injection, schedule: Q04DX003 (ip), vehicle: saline with Tween-80): 100 % of control | T/C [4]: 109 % of control | T/C (dose: 200.0 mg/kg/injection, schedule: Q04DX003 (ip), vehicle: saline with Tween-80): 100 % of control | T/C [5]: 113 % of control | T/C (dose: 400.0 mg/kg/injection, schedule: Q04DX003 (ip), vehicle: saline with Tween-80): 95 % of control

c1csc(NC(Nc2nccs2)C2CCCCC2)n1
T/C [6]: 101 % of control | T/C [3]: 96 % of control | T/C [4]: 96 % of control

CC1(C)N=C(N)N=C(N)N1c1ccc(CCC(=O)Nc2ccc(S(=O)(=O)F)cc2)cc1
T/C (dose: 0.88 mg/kg/injection, schedule: Q01DX009 (ip), vehicle: saline with Tween-80): 108 % of control | T/C (dose: 1.32 mg/kg/injection, schedule: Q01DX009 (ip), vehicle: saline with Tween-80): 112 % of control | T/C (dose: 2.0 mg/kg/injection, schedule: Q01DX009 (ip), vehicle: saline with Tween-80): 116 % of control | T/C (dose: 12.5 mg/kg/injection, schedule: Q01DX009 (ip), vehicle: saline with Tween-80): 150 % of control | T/C (dose: 25.0 mg/kg/injection, schedule: Q01DX009 (ip), vehicle: saline with Tween-80): 163 % of control | T/C (dose: 44.0 mg/kg/injection, schedule: Q04DX003 (ip), vehicle: saline sonified): 122 % of control | T/C [6]: 159 % of control | T/C (dose: 66.0 mg/kg/injection, schedule: Q04DX003 (ip), vehicle: saline sonified): 111 % of control | T/C (dose: 100.0 mg/kg/injection, schedule: Q01DX009 (ip), vehicle: saline sonified): 240 % of control | T/C (dose: 100.0 mg/kg/injection, schedule: Q04DX003 (ip), vehicle: saline sonified): 111 % of control | T/C (dose: 150.0 mg/kg/injection, schedule: Q04DX003 (ip), vehicle: saline sonified): 122 % of control | T/C (dose: 200.0 mg/kg/injection, schedule: Q01DX009 (ip), vehicle: saline sonified): 95 % of control | T/C (dose: 400.0 mg/kg/injection, schedule: Q01DX009 (ip), vehicle: saline sonified): 90 % of control

C=CCSc1nc2ccccc2c(=O)n1-c1cc(OC)c(Cl)cc1OC
T/C [7]: 88 % of control | T/C [8]: 96 % of control

CC(O)CN(CCN(CC(C)O)CC(C)O)CC(C)O.[Cl-].[Co+2] (stereo not given)
T/C [1]: 110 % of control

Clc1ccc(N=Cc2ccccc2)cc1
T/C [8]: 90 % of control | T/C (dose: 100.0 mg/kg/injection, schedule: Q04DX003 (ip), vehicle: Klucel (hydroxypropylcellulose) (HPC)): 108 % of control | T/C [9]: 90 % of control | T/C (dose: 200.0 mg/kg/injection, schedule: Q04DX003 (ip), vehicle: Klucel (hydroxypropylcellulose) (HPC)): 95 % of control | T/C (dose: 400.0 mg/kg/injection, schedule: Q04DX003 (ip), vehicle: Klucel (hydroxypropylcellulose) (HPC)): 100 % of control

NC(Cc1cccc(NP(=S)(N2CC2)N2CC2)c1)C(=O)O (stereo not given)
T/C (dose: 22.0 mg/kg/injection, schedule: Q04DX003 (ip), vehicle: saline): 120 % of control | T/C (dose: 35.0 mg/kg/injection, schedule: Q04DX003 (ip), vehicle: saline): 112 % of control | T/C (dose: 50.0 mg/kg/injection, schedule: Q04DX003 (ip), vehicle: saline): 150 % of control | T/C (dose: 115.0 mg/kg/injection, schedule: Q04DX003 (ip), vehicle: saline): 172 % of control | T/C (dose: 175.0 mg/kg/injection, schedule: Q04DX003 (ip), vehicle: saline): 268 % of control | T/C (dose: 264.0 mg/kg/injection, schedule: Q04DX003 (ip), vehicle: saline): 272 % of control | T/C [2]: 272 % of control | T/C (dose: 600.0 mg/kg/injection, schedule: Q04DX003 (ip), vehicle: saline): 86 % of control

O=C(O)C1CCCC2C(O)CCC(=O)C12 (stereo not given)
T/C [3]: 100 % of control | T/C [4]: 109 % of control

O=C(NC1CCCCC1)N(C(=O)C(F)(F)F)C1CCCCC1
T/C [6]: 97 % of control | T/C [3]: 93 % of control | T/C [4]: 93 % of control

Clc1ncc(Br)c(Cl)n1
T/C (dose: 2.7 mg/kg/injection, schedule: Q01DX009 (ip), vehicle: Klucel (hydroxypropylcellulose) (HPC)): 95 % of control | T/C (dose: 4.1 mg/kg/injection, schedule: Q01DX009 (ip), vehicle: Klucel (hydroxypropylcellulose) (HPC)): 95 % of control | T/C (dose: 8.2 mg/kg/injection, schedule: Q01DX009 (ip), vehicle: Klucel (hydroxypropylcellulose) (HPC)): 109 % of control | T/C (dose: 8.3 mg/kg/injection, schedule: Q01DX009 (ip), vehicle: Klucel (hydroxypropylcellulose) (HPC)): 100 % of control | T/C (dose: 12.5 mg/kg/injection, schedule: Q01DX009 (ip), vehicle: Klucel (hydroxypropylcellulose) (HPC)): 100 % of control and 109 % of control | T/C (dose: 13.75 mg/kg/injection, schedule: Q04DX003 (ip), vehicle: Klucel (hydroxypropylcellulose) (HPC)): 104 % of control | T/C (dose: 18.0 mg/kg/injection, schedule: Q01DX009 (ip), vehicle: Klucel (hydroxypropylcellulose) (HPC)): 100 % of control | T/C (dose: 18.75 mg/kg/injection, schedule: Q01DX009 (ip), vehicle: Klucel (hydroxypropylcellulose) (HPC)): 115 % of control | T/C (dose: 27.5 mg/kg/injection, schedule: Q04DX003 (ip), vehicle: Klucel (hydroxypropylcellulose) (HPC)): 100 % of control | T/C (dose: 55.0 mg/kg/injection, schedule: Q04DX003 (ip), vehicle: Klucel (hydroxypropylcellulose) (HPC)): 108 % of control | T/C (dose: 80.0 mg/kg/injection, schedule: Q04DX003 (ip), vehicle: Klucel (hydroxypropylcellulose) (HPC)): 108 % of control | T/C (dose: 125.0 mg/kg/injection, schedule: Q04DX003 (ip), vehicle: Klucel (hydroxypropylcellulose) (HPC)): 100 % of control

ClC1C(Cl)C2CC1C1OC21 (stereo not given)
T/C (dose: 50.0 mg/kg/injection, schedule: Q01DX009 (ip), vehicle: other): 101 % of control | T/C (dose: 100.0 mg/kg/injection, schedule: Q01DX009 (ip), vehicle: other): 100 % of control | T/C (dose: 200.0 mg/kg/injection, schedule: Q01DX009 (ip), vehicle: other): 100 % of control

O=C1/C(=C/c2ccco2)CC2CCCCC12 (stereo not given)
T/C [7]: 104 % of control | T/C (dose: 75.0 mg/kg/injection, schedule: Q01DX001 (ip), vehicle: other): 100 % of control | T/C (dose: 75.0 mg/kg/injection, schedule: Q01DX009 (ip), vehicle: Klucel (hydroxypropylcellulose) (HPC)): 113 % of control | T/C (dose: 150.0 mg/kg/injection, schedule: Q01DX001 (ip), vehicle: other): 104 % of control | T/C (dose: 150.0 mg/kg/injection, schedule: Q01DX009 (ip), vehicle: Klucel (hydroxypropylcellulose) (HPC)): 100 % of control

CCC(CO)NC(=O)/C=C/c1ccccc1 (stereo not given)
T/C [4]: 91 % of control | T/C [5]: 91 % of control

Nc1cc(N)cc(Cc2ccccc2)c1
T/C [7]: 112 % of control | T/C [8]: 116 % of control | T/C [9]: 116 % of control
